This note sets out measurements from paper PMC10638401, “Mannich-type modifications of (−)-cannabidiol and (−)-cannabigerol leading to new, bioactive derivatives” (Scientific Reports, 2023).

The test system of data set [1] is Pseudomonas aeruginosa. Description: Antibacterial effect, broth micro dilution. The format is cell-based.
Data set [2] deals with multidrug-resistant Acinetobacter baumannii. Put plainly: Antibacterial effect, broth micro dilution.
Procedure: (§2) According to CLSI guideline the Minimal Inhibitory Concentrations (MICs) of the prepared compounds were determined with the broth micro dilution method. After an overnight growth on 5% bovine blood agar plates at 35 °C bacterial strains were suspended in physiological saline in order to reach the density of 0.5 McFarland for inoculation. Stock solutions containing different concentrations of the substances were prepared in DMSO and H2O (1:1). These were twofold serially diluted from 256 to 0.5 mg/l in Mueller–Hinton broth, and 100 ml of each dilution was inoculated with 10 ml of each bacterial suspension.
Data set [3] has as its system SARS-CoV-2. Put plainly: SARS-CoV-2 immunofluorescence assay (nucleoprotein expression) in Vero E6 cells. The note with it: Severe acute respiratory syndrome coronavirus 2, Vero C1008, 72 h, three days. In kind it is cell-based.
For data set [4], the system named is Enterococcus faecalis 29 212. Description: MIC, broth micro dilution. The note with it: Enterococcus faecalis, 29212.
Procedure: as §2
The test system of data set [5] is Klebsiella pneumoniae carbapenemase-producing bacteria. Put plainly: Antibacterial effect, broth micro dilution.
Procedure: as §2
In data set [6] the test system is SZ95 sebocytes. Put plainly: Viability MTT-assay on sebocytes, 48 h. The conditions noted are these: 30 μM. The format is cell-based, human. How it is done: (§1) Human immortalized SZ95 sebocytes, originated from human facial sebaceous glands[50] were provided by prof. Christos C. Zouboulis, and were cultured in Sebomed® Basal Medium (Cat. No. F8205; Sigma-Aldrich) supplemented with 10% FBS (Gibco-Thermo Fisher Scientific), 1 mM CaCl2 (Cat. No. C7902; Sigma-Aldrich), 5 ng/ml human epidermal growth factor (Cat. No. E9644; Sigma-Aldrich), and MycoZap™ Plus-CL (1:500; Lonza). The medium was changed every other day, and cells were subcultured at 60–70% confluence.
The viability of HaCaT keratinocytes and SZ95 sebocytes was determined by MTT-assay[58] (Cat. No. M5655; Sigma-Aldrich) measuring the conversion of the tetrazolium salt to formazan by mitochondrial dehydrogenases. Cells were plated in 96-well plates (20,000 cells/well), and were treated as indicated. Cells were then incubated with 0.5 mg/ml MTT reagent for 3 h, and concentration of formazan crystals (as an indicator of number of viable cells) was determined colorimetrically at 565 nm by using FlexStation 3 multi-mode microplate reader (Molecular Devices). Results were expressed as percentage of vehicle-treated control regarded as 100%.

Data set [7] concerns Escherichia coli. Put plainly: Antibacterial effect, broth micro dilution. The format is cell-based.
The subject of data set [8] is SZ95 sebocytes. Put plainly: Nile Red-assay, arachidonic acid-induced lipogenesis. In kind it is cell-based, human. The conditions noted are these: 50 μM arachidonic acid, 48 h. How it is done:
as §1
For quantitative measurement of sebaceous (neutral) lipid content, SZ95 sebocytes (20,000 cells/well) were cultured in 96-well “black well/clear bottom” plates (Cat. No. 655090; Greiner Bio-One, Frickenhausen, Germany), and were treated with compounds in the presence or absence of arachidonic acid (AA; Cat. No. 90010; Cayman Chemical Company, Ann Arbor, MI, USA) or its vehicle (absolute ethanol) as indicated. Subsequently, supernatants were discarded, cells were washed twice with phosphate-buffered saline (PBS; 115 mM NaCl, 20 mM Na2HPO4, pH 7.4; all from Sigma-Aldrich), and 100 µl of a 1 µg/ml Nile Red (Cat. No. N3013; Sigma-Aldrich) solution in PBS was added to each well. The plates were then incubated at 37 °C for 30 min, and fluorescence was measured on FlexStation 3 multimode microplate reader (Molecular Devices, San Francisco, CA, USA). Results, measured in relative fluorescence units, are expressed as percentage of the vehicle (absolute ethanol; Cat. No. 20821.296; VWR International)-treated control regarded as 100%, using 485 nm excitation and 565 nm emission wavelengths.

Converted amounts (≈) assume the structure as drawn. Where only a bound is given, the exact number is not on record here.

For `C=C(C)[C@@H]1CCC(C)=C[C@H]1c1c(O)cc(CCCCC)cc1O` [Compound 1, (−)-Cannabidiol], the “antibacterial effect (no effect up to)” value in data set [1], in data set [2], in data set [5] and in data set [7] was above 256 µg/mL throughout. The compound further had an EC50 in data set [3] of 8.3 ± 0.28 µM. The same compound yielded an MIC in data set [4] of 2 µg/mL (≈ 6.36 µM). In addition, in data set [6], the “viability (MTT signal intensity)” value is reported as “cytotoxic effects”. Besides, the “effect on the lipogenic effect of arachidonic acid (AA)” value in data set [8] was “completely prevent the lipogenic effect”.
Compound `C=C(C)[C@@H]1CCC(C)=C[C@H]1c1c(O)cc(CCCCC)c(COCC)c1O` [Compound 9] showed a half-maximal effective concentration (EC50) in data set [3] of around 94 µM. The same compound registered an MIC in data set [4] of 8 µg/mL (≈ 21.5 µM). The “viability (MTT signal intensity)” value in data set [6] is recorded as “no such effect on the viability”. Further, the “effect on the lipogenic effect of arachidonic acid (AA)” value in data set [8] is recorded as “mimic this lipostatic effect”.

By EC50 is commonly meant the concentration at which the effect is half-maximal. A word on the MIC: it is the lowest concentration found to suppress growth. Low values mean inhibition by little substance, high ones a need for much substance.
